Legend:
[1] = Incubation of a PDMS surface in contact with rhodamine solution; format: physicochemical; details: 1.5 wt % solution of rhodamine, over 180 seconds
[2] = Solute diffusion from microfluidic channels into agarose hydrogel (time-lapse fluorescence); format: physicochemical; details: solution pumped through channels at 25 μL/min; 1.5 wt % agarose
Experimental: To illustrate a dynamic solute exchange between the hydrogel and the fluid in the microchannels, a liquid suspension of 1.5 wt % agarose in DI water was pipetted into the open reservoir of the microfluidic device. After solidification of the agarose, water containing 1.0 wt % rhodamine was introduced into the inlet using a syringe pump at a constant volumetric flowrate of 25 μL/min. Time-lapse images were taken every 30 seconds using a TI-E Nikon microscope and the fluorescent intensity was measured in the resulting images using NIS-Elements software in order to track the rhodamine diffusion from the channels into the agarose hydrogel.
Water containing 1.0 wt % rhodamine (0.48 kDa) was introduced into the microfluidic channels at a flowrate of 25 μL/min. […] Florescent intensity at two points—one directly beneath a PDMS wall and another centred beneath a microfluidic channel—was tracked over time.

[3] = modelled value for rhodamine in 1.5% agarose hydrogel medium; cited from earlier work

rhodamine
diffusion into PDMS [1]: no detectable diffusion | diffusion from microchannels into adjacent hydrogel [2]: diffused into the adjacent hydrogel | diffusion coefficient D [3]: 4×10^−6 cm^2/sec
